Results published in patent US10138207B2, “Benzomorphan analogs and the use thereof” (priority 2012, dated 2018).
Read-outs that look alike come from different tables or passages of the source.

Tests used:
κ opioid receptor [1] = target: T1, κ opioid receptor (Homo sapiens, UniProt P41145); test: biochemical; type: binding; set-up: expressed in transfected cells; host or cells: HEK 293 (in-house membrane prep); conditions: HEK-293 or CHO cells; bound in μM
κ opioid receptor [2] = target: T1, κ opioid receptor; test: κ-opioid receptor [35S]GTPγS functional assay, U-2 OS cells; type: biochemical; set-up: expressed in transfected cells; host or cells: U-2 OS (in-house membranes); conditions: for Emax: read-out: GTPγS κ Emax
Procedure: Membranes from recombinant HEK-293 cells, CHO or U-2 OS cells expressing the recombinant human κ opioid receptor (κ) were prepared by lysing cells in ice cold hypotonic buffer (2.5 mM MgCl2, 50 mM HEPES, pH 7.4) (10 mL/10 cm dish) followed by homogenization with a tissue grinder/Teflon pestle. […] Membranes were collected by centrifugation at 30,000×g for 15 min at 4° C. and pellets were resuspended in hypotonic buffer to a final concentration of 1-3 mg/mL. Protein concentrations were determined using the BioRad protein assay reagent with bovine serum albumen as standard. Aliquots of κ receptor membranes were stored at −80° C.
Plates were incubated for 30 min at a temperature of about 25° C. with shaking.

μ-opioid receptor = μ-opioid receptor (Homo sapiens, UniProt P35372); test: μ-opioid receptor [35S]GTPγS functional assay, U-2 OS cells; type: biochemical; set-up: expressed in transfected cells; host or cells: U-2 OS
Chain of μ-opioid receptor (P35372 whole entry, species assumed): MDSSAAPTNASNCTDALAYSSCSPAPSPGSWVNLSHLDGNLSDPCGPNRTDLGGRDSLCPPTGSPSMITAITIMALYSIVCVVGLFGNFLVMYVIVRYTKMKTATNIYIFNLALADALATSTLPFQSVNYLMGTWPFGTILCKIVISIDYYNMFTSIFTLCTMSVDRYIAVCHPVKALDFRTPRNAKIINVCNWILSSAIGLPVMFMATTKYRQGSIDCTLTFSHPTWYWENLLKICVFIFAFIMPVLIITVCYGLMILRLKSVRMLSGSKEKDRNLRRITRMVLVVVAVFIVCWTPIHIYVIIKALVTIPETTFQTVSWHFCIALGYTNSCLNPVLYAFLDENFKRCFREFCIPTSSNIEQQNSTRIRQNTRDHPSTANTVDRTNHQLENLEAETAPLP

[3] = U-2 OS cells, read-out: GTPγS κ EC50
[4] = U-2 OS cells, relative to U69,593
[5] = U-2 OS cells, read-out: GTPγS μ EC50
[6] = U-2 OS cells, relative to DAMGO, read-out: GTPγS μ Emax
[7] = U-2 OS cells, bound in μM, read-out: GTPγS κ EC50
[8] = U-2 OS cells, bound in μM, read-out: GTPγS μ EC50
[9] = GTPγS μ EC50, U-2 OS cells, bound in μM
[10] = read-out: GTPγS μ Emax, U-2 OS cells, relative to DAMGO

T1 sequence (P41145 whole entry): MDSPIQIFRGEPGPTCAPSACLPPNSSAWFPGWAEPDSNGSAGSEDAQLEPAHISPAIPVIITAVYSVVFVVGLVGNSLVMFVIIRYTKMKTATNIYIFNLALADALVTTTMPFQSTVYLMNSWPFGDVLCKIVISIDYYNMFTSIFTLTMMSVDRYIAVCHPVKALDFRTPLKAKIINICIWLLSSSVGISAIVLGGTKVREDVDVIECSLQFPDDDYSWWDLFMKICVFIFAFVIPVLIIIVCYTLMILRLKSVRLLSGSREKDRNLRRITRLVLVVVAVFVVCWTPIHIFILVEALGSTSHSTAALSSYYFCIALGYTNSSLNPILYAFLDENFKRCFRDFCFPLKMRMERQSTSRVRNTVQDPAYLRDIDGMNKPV

## CCOC(=O)/C=C1\C2Cc3ccc(OC)cc3C1(C)CCN2C (centres unmarked) [Compound 12]
κ opioid receptor [1]
  Ki: > 20 µM

## CN[C@@H]1C2Cc3ccc(OC)cc3[C@@]1(C)CCN2C [Compound 8, (6R,11S)-8-methoxy-N,3,6-trimethyl-1,2,3,4,5,6-hexahydro-2,6-methanobenzo[d]azocin-11-amine]
κ opioid receptor [1]
  Ki: > 20 µM

## CN1CC[C@@]2(C)c3cc(O)ccc3C[C@@H]1[C@@H]2N(C)C(=O)c1ccsc1 [Compound 124, N-((2R,6S,11R)-8-hydroxy-3,6-dimethyl-1,2,3,4,5,6-hexahydro-2,6-methanobenzo[d]azocin-11-yl)-N-methylthiophene-3-carboxamide]
κ opioid receptor [2]; [3]
  EC50: 680 ± 67.7 nM
κ opioid receptor [2]; [4]
  Emax: 77.3 ± 4.63%
μ-opioid receptor; [5]
  EC50: 0.0141 ± 0.00048 µM
μ-opioid receptor; [6]
  Emax: 98 ± 3.06%

## CN1CC[C@@]2(C)c3cc(O)ccc3C[C@@H]1[C@@H]2N(C)C(=O)C1CCCCC1 [Compound 121, N-((2R,6S,11R)-8-hydroxy-3,6-dimethyl-1,2,3,4,5,6-hexahydro-2,6-methanobenzo[d]azocin-11-yl)-N-methylcyclohexanecarboxamide]
κ opioid receptor [2]; [3]
  EC50: 604 ± 68.1 nM
κ opioid receptor [2]; [4]
  Emax: 18.3 ± 0.88%
μ-opioid receptor; [5]
  EC50: 0.126 ± 0.0154 µM
μ-opioid receptor; [6]
  Emax: 91.7 ± 4.18%

## CN1CC[C@@]2(C)c3cc(O)ccc3C[C@@H]1[C@@H]2NCC1CCN(C(=O)OC(C)(C)C)CC1 [Compound 107, tert-butyl 4-((((2R,6S,11R)-8-hydroxy-3,6-dimethyl-1,2,3,4,5,6-hexahydro-2,6-methanobenzo[d]azocin-11-yl)amino)methyl)piperidine-1-carboxylate]
κ opioid receptor [2]; [7]
  EC50: > 20000 nM
κ opioid receptor [2]; [4]
  Emax: 1%
μ-opioid receptor; [5]
  EC50: 0.0462 ± 0.00035 µM
μ-opioid receptor; U-2 OS cells, relative to DAMGO
  GTPγS μ Emax: 58.30 ± 0.33%

## CCC[C@@]12CCN(C)C(Cc3ccc(OC)cc31)[C@@H]2N(C)C(=O)Nc1ccc(C#N)cc1 [Compound 136, 3-(4-cyanophenyl)-1-((6R,11R)-8-methoxy-3-methyl-6-propyl-1,2,3,4,5,6-hexahydro-2,6-methanobenzo[d]azocin-11-yl)-1-methylurea]
κ opioid receptor [2]; [3]
  EC50: 3830 ± 541 nM
κ opioid receptor [2]; [4]
  Emax: 22.3 ± 3.71%
μ-opioid receptor; [5]
  EC50: 2.33 ± 0.236 µM
μ-opioid receptor; [6]
  Emax: 62.3 ± 3.84%

## CN1CC[C@@]2(C)c3cc(O)ccc3C[C@@H]1[C@H]2NCCc1ccncc1 [Compound 103, (2R,6S,11S)-3,6-dimethyl-11-((2-(pyridin-4-yl)ethyl)amino)-1,2,3,4,5,6-hexahydro-2,6-methanobenzo[d]azocin-8-ol]
κ opioid receptor [2]; [3]
  EC50: 287 ± 62 nM
κ opioid receptor [2]; [4]
  Emax: 83 ± 8.02%
μ-opioid receptor; [5]
  EC50: 0.117 ± 0.00282 µM
μ-opioid receptor; [6]
  Emax: 77.5 ± 1.26%

## CN1CC[C@@]2(C)c3cc(O)ccc3C[C@@H]1[C@@H]2N(C)C(=O)c1ccccc1 [Compound 119, N-((2R,6S,11R)-8-hydroxy-3,6-dimethyl-1,2,3,4,5,6-hexahydro-2,6-methanobenzo[d]azocin-11-yl)-N-methylbenzamide]
κ opioid receptor [2]; [3]
  EC50: 383 ± 21.9 nM
κ opioid receptor [2]; [4]
  Emax: 96.7 ± 5.36%
μ-opioid receptor; [5]
  EC50: 0.0322 ± 0.00326 µM
μ-opioid receptor; [6]
  Emax: 100 ± 2.73%

## CN1CC[C@@]2(C)c3cc(O)ccc3C[C@@H]1[C@H]2NCCNC(=O)OC(C)(C)C [Compound 112, tert-butyl (2-(((2R,6S,11S)-8-hydroxy-3,6-dimethyl-1,2,3,4,5,6-hexahydro-2,6-methanobenzo[d]azocin-11-yl)amino)ethyl)carbamate]
κ opioid receptor [2]; [3]
  EC50: 23.4 ± 7.81 nM
κ opioid receptor [2]; [4]
  Emax: 26.3 ± 0.88%
μ-opioid receptor; [5]
  EC50: 0.00756 ± 0.00045 µM
μ-opioid receptor; [6]
  Emax: 83.7 ± 1.45%

## C[C@]12CCN(CC3CC3)[C@H](Cc3ccc(O)cc31)[C@H]2NCC1CCNCC1 [Compound 102, (2R,6S,11S)-3-(cyclopropylmethyl)-6-methyl-11-((piperidin-4-ylmethyl)amino)-1,2,3,4,5,6-hexahydro-2,6-methanobenzo[d]azocin-8-ol]
κ opioid receptor [2]; [7]
  EC50: > 20000 nM
κ opioid receptor [2]; [4]
  Emax: -1%
μ-opioid receptor; [8]
  EC50: > 20 µM
μ-opioid receptor; [6]
  Emax: 2.5%

## CN1CC[C@@]2(C)c3cc(O)ccc3C[C@@H]1[C@@H]2N(C)C(=O)Nc1nc2cc(F)ccc2s1 [Compound 140, 3-(5-fluorobenzo[d]thiazol-2-yl)-1-((2R,6S,11R)-8-hydroxy-3,6-dimethyl-1,2,3,4,5,6-hexahydro-2,6-methanobenzo[d]azocin-11-yl)-1-methylurea]
κ opioid receptor [2]; [3]
  EC50: 4.68 ± 0.4 nM
κ opioid receptor [2]; [4]
  Emax: 107 ± 4.4%
μ-opioid receptor; [5]
  EC50: 0.0001 ± 1e-05 µM
μ-opioid receptor; [6]
  Emax: 82 ± 0.91%

## CN1CC[C@@]2(C)c3cc(O)ccc3C[C@@H]1[C@@H]2N(C)C(=O)Cc1ccccc1 [Compound 118, N-((2R,6S,11R)-8-hydroxy-3,6-dimethyl-1,2,3,4,5,6-hexahydro-2,6-methanobenzo[d]azocin-11-yl)-N-methyl-2-phenylacetamide]
κ opioid receptor [2]; [3]
  EC50: 90.8 ± 7.63 nM
κ opioid receptor [2]; [4]
  Emax: 75.2 ± 4.33%
μ-opioid receptor; [5]
  EC50: 0.00132 ± 4e-05 µM
μ-opioid receptor; [6]
  Emax: 101 ± 2.52%

## CN1CC[C@@]2(C)c3cc(O)ccc3C[C@@H]1[C@H]2N(C)C(=O)C1CCCCC1 [Compound 120, N-((2R,6S,11S)-8-hydroxy-3,6-dimethyl-1,2,3,4,5,6-hexahydro-2,6-methanobenzo[d]azocin-11-yl)-N-methylcyclohexanecarboxamide]
κ opioid receptor [2]; [3]
  EC50: 2860 ± 231 nM
κ opioid receptor [2]; [4]
  Emax: 62.3 ± 4.91%
μ-opioid receptor; [5]
  EC50: 2.94 ± 0.481 µM
μ-opioid receptor; [6]
  Emax: 76.3 ± 3.48%

## CN1CC[C@@]2(C)c3cc(O)ccc3C[C@@H]1[C@H]2NCCc1ccc(Cl)c(Cl)c1 [Compound 99, (2R,6S,11S)-11-((3,4-dichlorophenethyl)amino)-3,6-dimethyl-1,2,3,4,5,6-hexahydro-2,6-methanobenzo[d]azocin-8-ol]
κ opioid receptor [2]; [3]
  EC50: 1.44 ± 0.053 nM
κ opioid receptor [2]; [4]
  Emax: 72.3 ± 4.67%
μ-opioid receptor; [5]
  EC50: 0.00013 ± 1e-05 µM
μ-opioid receptor; [6]
  Emax: 71 ± 2%

## CCC[C@@]12CCN(C)C(Cc3ccc(OC)cc31)[C@H]2N(C)C(=O)Nc1ccc(CN)cc1 [Compound 138, 3-(4-(aminomethyl)phenyl)-1-((6R,11S)-8-methoxy-3-methyl-6-propyl-1,2,3,4,5,6-hexahydro-2,6-methanobenzo[d]azocin-11-yl)-1-methylurea]
κ opioid receptor [2]; [7]
  EC50: > 20000 nM
κ opioid receptor [2]; [4]
  Emax: 35.5 ± 2.06%
μ-opioid receptor; [8]
  EC50: > 20 µM
μ-opioid receptor; [6]
  Emax: 45.3 ± 2.33%

## C=CC[C@@]12CCN(C)C(Cc3ccc(OC)cc31)[C@@H]2N(C)C(=O)Nc1ccc(C#N)cc1 [Compound 135, 1-((6R,11R)-6-allyl-8-methoxy-3-methyl-1,2,3,4,5,6-hexahydro-2,6-methanobenzo[d]azocin-11-yl)-3-(4-cyanophenyl)-1-methylurea]
κ opioid receptor [2]; [3]
  EC50: 2810 ± 397 nM
κ opioid receptor [2]; [4]
  Emax: 22 ± 2.52%
μ-opioid receptor; [5]
  EC50: 1.7 ± 0.112 µM
μ-opioid receptor; [6]
  Emax: 92 ± 2.65%

## CN1CC[C@@]2(C)c3cc(O)ccc3C[C@@H]1[C@H]2N(C)C(=O)c1ccc(C(F)(F)F)cn1 [Compound 126, N-((2R,6S,11S)-8-hydroxy-3,6-dimethyl-1,2,3,4,5,6-hexahydro-2,6-methanobenzo[d]azocin-11-yl)-N-methyl-5-(trifluoromethyl)picolinamide]
κ opioid receptor [2]; [3]
  EC50: 1470 ± 91.3 nM
κ opioid receptor [2]; [4]
  Emax: 63.7 ± 3.93%
μ-opioid receptor; [5]
  EC50: 0.147 ± 0.00947 µM
μ-opioid receptor; [6]
  Emax: 103 ± 2.4%

## CN1CC[C@@]2(C)c3cc(O)ccc3C[C@@H]1[C@H]2NCC1CCN(C(=O)OC(C)(C)C)CC1 [Compound 106, tert-butyl 4-((((2R,6S,11S)-8-hydroxy-3,6-dimethyl-1,2,3,4,5,6-hexahydro-2,6-methanobenzo[d]azocin-11-yl)amino)methyl)piperidine-1-carboxylate]
κ opioid receptor [2]
  EC50: > 20000 nM
  Emax: 1%
μ-opioid receptor; [9]
  EC50: > 20 µM
μ-opioid receptor; [10]
  Emax: 2.5%

## CN1CC[C@@]2(C)c3cc(O)ccc3C[C@@H]1[C@@H]2N(C)C(=O)Cc1ccsc1 [Compound 123, N-((2R,6S,11R)-8-hydroxy-3,6-dimethyl-1,2,3,4,5,6-hexahydro-2,6-methanobenzo[d]azocin-11-yl)-N-methyl-2-(thiophen-3-yl)acetamide]
κ opioid receptor [2]
  EC50: 113 ± 5.8 nM
  Emax: 74 ± 3.06%
μ-opioid receptor; [10]
  Emax: 104 ± 3.06%

## C[C@]12CCN(CC3CC3)[C@H](Cc3ccc(O)cc31)[C@H]2NC(=O)c1ccsc1 [Compound 113, N-((2R,6S,11S)-3-(cyclopropylmethyl)-8-hydroxy-6-methyl-1,2,3,4,5,6-hexahydro-2,6-methanobenzo[d]azocin-11-yl)thiophene-3-carboxamide]
κ opioid receptor [2]; [3]
  EC50: 0.052 ± 0.013 nM
κ opioid receptor [2]; [4]
  Emax: 99.2 ± 1.65%
μ-opioid receptor; [5]
  EC50: 0.00045 ± 3.6e-05 µM
μ-opioid receptor; [6]
  Emax: 68.7 ± 3.71%

## C[C@]12CCN(CC3CC3)[C@H](Cc3ccc(O)cc31)[C@@H]2NC(=O)c1ccsc1 [Compound 127, N-((2R,6S,11R)-3-(cyclopropylmethyl)-8-hydroxy-6-methyl-1,2,3,4,5,6-hexahydro-2,6-methanobenzo[d]azocin-11-yl)thiophene-3-carboxamide]
κ opioid receptor [2]
  EC50: 947 ± 68 nM
  Emax: 93 ± 3.51%
μ-opioid receptor; [9]
  EC50: > 20 µM
μ-opioid receptor; [10]
  Emax: 3.67 ± 1.2%

## CCC[C@@]12CCN(C)C(Cc3ccc(O)cc31)[C@H]2N(C)C(=O)Nc1ccc(C#N)cc1 [Compound 137, 3-(4-cyanophenyl)-1-((6R,11S)-8-hydroxy-3-methyl-6-propyl-1,2,3,4,5,6-hexahydro-2,6-methanobenzo[d]azocin-11-yl)-1-methylurea]
κ opioid receptor [2]; [3]
  EC50: 3370 ± 753 nM
κ opioid receptor [2]; [4]
  Emax: 30 ± 2.31%
μ-opioid receptor; [5]
  EC50: 1.32 ± 0.177 µM
μ-opioid receptor; [6]
  Emax: 50.3 ± 1.76%

## CN(C(=O)c1ccccc1)[C@@H]1[C@H]2Cc3ccc(O)cc3[C@]1(C)CCN2CC1CC1 [Compound 115, N-((2R,6S,11S)-3-(cyclopropylmethyl)-8-hydroxy-6-methyl-1,2,3,4,5,6-hexahydro-2,6-methanobenzo[d]azocin-11-yl)-N-methylbenzamide]
κ opioid receptor [2]; [3]
  EC50: 53.4 ± 7.28 nM
κ opioid receptor [2]; [4]
  Emax: 76 ± 6.66%
μ-opioid receptor; [5]
  EC50: 0.159 ± 0.0154 µM
μ-opioid receptor; [6]
  Emax: 37.7 ± 1.67%

## CN([C@@H]1[C@H]2Cc3ccc(O)cc3[C@]1(C)CCN2CC1CC1)S(=O)(=O)c1cccc(C(F)(F)F)c1 [Compound 130, N-((2R,6S,11S)-3-(cyclopropylmethyl)-8-hydroxy-6-methyl-1,2,3,4,5,6-hexahydro-2,6-methanobenzo[d]azocin-11-yl)-N-methyl-3-(trifluoromethyl)benzenesulfonamide]
κ opioid receptor [2]; [3]
  EC50: 22.8 ± 3.38 nM
κ opioid receptor [2]; [4]
  Emax: 71 ± 3.11%
μ-opioid receptor; [5]
  EC50: 0.373 ± 0.105 µM
μ-opioid receptor; [6]
  Emax: 29 ± 2%
